{
  "source": "patent US8729082B2",
  "about": "“Substituted imidazoquinoxalines” (Bayer Intellectual Property GmbH, priority 2009, dated 2014)",
  "data": [
    {"biological_target": "T1, human kinase Mps-1 (Homo sapiens, UniProt P33981)", "T1 construct": "N-terminally GST-tagged human full length recombinant Mps-1 kinase; purchased Invitrogen, Karslruhe, Germany PV4071", "T1 sequence (P33981 1-857)": "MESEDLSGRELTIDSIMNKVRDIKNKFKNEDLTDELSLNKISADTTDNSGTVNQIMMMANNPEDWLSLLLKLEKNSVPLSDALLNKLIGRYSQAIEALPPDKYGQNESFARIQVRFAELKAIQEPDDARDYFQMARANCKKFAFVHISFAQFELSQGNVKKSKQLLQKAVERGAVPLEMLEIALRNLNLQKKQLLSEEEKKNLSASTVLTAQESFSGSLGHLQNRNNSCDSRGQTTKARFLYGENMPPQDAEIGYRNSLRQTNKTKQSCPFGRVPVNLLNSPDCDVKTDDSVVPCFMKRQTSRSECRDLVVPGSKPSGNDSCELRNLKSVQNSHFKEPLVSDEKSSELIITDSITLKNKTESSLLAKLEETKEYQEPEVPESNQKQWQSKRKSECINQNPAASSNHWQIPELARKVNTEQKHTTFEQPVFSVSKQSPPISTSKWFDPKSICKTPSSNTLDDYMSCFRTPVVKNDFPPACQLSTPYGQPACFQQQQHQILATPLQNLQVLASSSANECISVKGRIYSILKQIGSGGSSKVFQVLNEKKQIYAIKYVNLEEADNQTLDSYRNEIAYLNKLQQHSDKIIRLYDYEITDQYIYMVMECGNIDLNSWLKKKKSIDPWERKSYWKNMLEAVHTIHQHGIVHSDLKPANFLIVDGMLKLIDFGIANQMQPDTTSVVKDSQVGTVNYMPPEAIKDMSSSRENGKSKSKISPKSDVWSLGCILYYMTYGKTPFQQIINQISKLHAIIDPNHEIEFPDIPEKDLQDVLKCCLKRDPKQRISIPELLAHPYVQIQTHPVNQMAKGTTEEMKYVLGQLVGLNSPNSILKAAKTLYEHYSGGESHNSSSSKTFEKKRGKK", "assay": "Mps-1 kinase assay (HTRF)", "type": "biochemical", "conditions": "lowATP; mean; read-out: Mps1 lowATP mean IC50", "procedure,_shortened": "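HTRF readout: EDTA-stopped reactions incubated 1 h with europium anti-phospho(Ser/Thr) antibody and streptavidin-XLent, emission ratio 665/620 nm after 350 nm excitation. Kinase step: compound pre-bound 15 min to ~1 nM GST-Mps-1, then 60 min at 22 °C with ATP and biotin-peptide substrate; inhibition scaled between no-inhibitor (0%) and no-enzyme (100%) controls.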", "units": {"IC50": "µM"}, "values": [
      {"smiles": "CNC(=O)Nc1ccc(-c2cnc3c(NCc4cccs4)nc4cc(C#N)ccc4n23)cc1", "note": "[Example 2-226, 1-(4-{7-cyano-4-[(thiophen-2-ylmethyl)amino]imidazo[1,2-a]quinoxalin-1-yl}phenyl)-3-methylurea]", "IC50": 2.82},
      {"smiles": "CNC(=O)Nc1ccc(-c2cnc3c(NCCCO)nc4cc(C#N)ccc4n23)cc1", "note": "[Example 2-227, 1-(4-{7-cyano-4-[(3-hydroxypropyl)amino]imidazo[1,2-a]quinoxalin-1-yl}phenyl)-3-methylurea]", "IC50": 3.47},
      {"smiles": "CNC(=O)Nc1ccc(-c2cnc3c(NCCNC(C)=O)nc4cc(C#N)ccc4n23)cc1", "note": "[Example 2-228, N-{2-[(7-cyano-1-{4-[(methylcarbamoyl)amino]phenyl}imidazo[1,2-a]quinoxalin-4-yl)amino]ethyl}acetamide]", "IC50": 9.78},
      {"smiles": "CNC(=O)Nc1ccc(-c2cnc3c(NCCCn4ccnc4)nc4cc(C#N)ccc4n23)cc1", "note": "[Example 2-229, 1-[4-(7-cyano-4-{[3-(1H-imidazol-1-yl)propyl]amino}imidazo[1,2-a]quinoxalin-1-yl)phenyl]-3-methylurea]", "IC50": 4.99},
      {"smiles": "CNC(=O)Nc1ccc(-c2cnc3c(NCc4cccnc4)nc4cc(C#N)ccc4n23)cc1", "note": "[Example 2-230, 1-(4-{7-cyano-4-[(pyridin-3-ylmethyl)amino]imidazo[1,2-a]quinoxalin-1-yl}phenyl)-3-methylurea]", "IC50": 1.41},
      {"smiles": "CNC(=O)Nc1ccc(-c2cnc3c(NCc4ccco4)nc4cc(C#N)ccc4n23)cc1", "note": "[Example 2-231, 1-(4-{7-cyano-4-[(furan-2-ylmethyl)amino]imidazo[1,2-a]quinoxalin-1-yl}phenyl)-3-methylurea]", "IC50": 5.21},
      {"smiles": "CNC(=O)Nc1ccc(-c2cnc3c(NCc4ccnn4C)nc4cc(C#N)ccc4n23)cc1", "note": "[Example 2-232, 1-[4-(7-cyano-4-{[(1-methyl-1H-pyrazol-5-yl)methyl]amino}imidazo[1,2-a]quinoxalin-1-yl)phenyl]-3-methylurea]", "IC50": 1.14},
      {"smiles": "CNC(=O)Nc1ccc(-c2cnc3c(NCC(O)CO)nc4cc(C#N)ccc4n23)cc1", "note": "(centres unmarked) [Example 2-233, 1-(4-{7-cyano-4-[(2,3-dihydroxypropyl)amino]imidazo[1,2-a]quinoxalin-1-yl}phenyl)-3-methylurea]", "IC50": 17.8},
      {"smiles": "CCCNc1nc2cc(C#N)ccc2n2c(-c3ccc(C(=O)NC4CC4)c(Cl)c3)cnc12", "note": "[Example 2-234, 2-chloro-4-[7-cyano-4-(propylamino)imidazo[1,2-a]quinoxalin-1-yl]-N-cyclopropylbenzamide]", "IC50": 0.81},
      {"smiles": "N#Cc1ccc2c(c1)nc(NCCO)c1ncc(-c3ccc(C(=O)NC4CC4)c(Cl)c3)n12", "note": "[Example 2-235, 2-chloro-4-{7-cyano-4-[(2-hydroxyethyl)amino]imidazo[1,2-a]quinoxalin-1-yl}-N-cyclopropylbenzamide]", "IC50": 3.45},
      {"smiles": "N#Cc1ccc2c(c1)nc(NCCCN1CCOCC1)c1ncc(-c3ccc(C(=O)NC4CC4)c(Cl)c3)n12", "note": "[Example 2-236, 2-chloro-4-(7-cyano-4-{[3-(morpholin-4-yl)propyl]amino}imidazo[1,2-a]quinoxalin-1-yl)-N-cyclopropylbenzamide]", "IC50": 15},
      {"smiles": "CC(C)CCNc1nc2cc(C#N)ccc2n2c(-c3ccc(C(=O)NC4CC4)c(Cl)c3)cnc12", "note": "[Example 2-237, 2-chloro-4-{7-cyano-4-[(3-methylbutyl)amino]imidazo[1,2-a]quinoxalin-1-yl}-N-cyclopropylbenzamide]", "IC50": 0.6},
      {"smiles": "N#Cc1ccc2c(c1)nc(NCc1ccccc1F)c1ncc(-c3ccc(C(=O)NC4CC4)c(Cl)c3)n12", "note": "[Example 2-238, 2-chloro-4-{7-cyano-4-[(2-fluorobenzyl)amino]imidazo[1,2-a]quinoxalin-1-yl}-N-cyclopropylbenzamide]", "IC50": 0.613},
      {"smiles": "N#Cc1ccc2c(c1)nc(NCCCCO)c1ncc(-c3ccc(C(=O)NC4CC4)c(Cl)c3)n12", "note": "[Example 2-239, 2-chloro-4-{7-cyano-4-[(4-hydroxybutyl)amino]imidazo[1,2-a]quinoxalin-1-yl}-N-cyclopropylbenzamide]", "IC50": 1.04},
      {"smiles": "N#Cc1ccc2c(c1)nc(NCc1ccccc1)c1ncc(-c3ccc(C(=O)NC4CC4)c(Cl)c3)n12", "note": "[Example 2-240, 4-[4-(benzylamino)-7-cyanoimidazo[1,2-a]quinoxalin-1-yl]-2-chloro-N-cyclopropylbenzamide]", "IC50": 0.889},
      {"smiles": "N#Cc1ccc2c(c1)nc(NCc1cccs1)c1ncc(-c3ccc(C(=O)NC4CC4)c(Cl)c3)n12", "note": "[Example 2-241, 2-chloro-4-{7-cyano-4-[(thiophen-2-ylmethyl)amino]imidazo[1,2-a]quinoxalin-1-yl}-N-cyclopropylbenzamide]", "IC50": 0.546},
      {"smiles": "N#Cc1ccc2c(c1)nc(NCCCO)c1ncc(-c3ccc(C(=O)NC4CC4)c(Cl)c3)n12", "note": "[Example 2-242, 2-chloro-4-{7-cyano-4-[(3-hydroxypropyl)amino]imidazo[1,2-a]quinoxalin-1-yl}-N-cyclopropylbenzamide]", "IC50": 3.78},
      {"smiles": "CCCCNc1nc2cc(C#N)ccc2n2c(-c3ccc(C(=O)NC4CC4)c(Cl)c3)cnc12", "note": "[Example 2-243, 4-[4-(butylamino)-7-cyanoimidazo[1,2-a]quinoxalin-1-yl]-2-chloro-N-cyclopropylbenzamide]", "IC50": 0.506},
      {"smiles": "CC(=O)NCCNc1nc2cc(C#N)ccc2n2c(-c3ccc(C(=O)NC4CC4)c(Cl)c3)cnc12", "note": "[Example 2-244, 4-(4-{[2-(acetylamino)ethyl]amino}-7-cyanoimidazo[1,2-a]quinoxalin-1-yl)-2-chloro-N-cyclopropylbenzamide]", "IC50": 8.82},
      {"smiles": "N#Cc1ccc2c(c1)nc(NCc1cccnc1)c1ncc(-c3ccc(C(=O)NC4CC4)c(Cl)c3)n12", "note": "[Example 2-245, 2-chloro-4-{7-cyano-4-[(pyridin-3-ylmethyl)amino]imidazo[1,2-a]quinoxalin-1-yl}-N-cyclopropylbenzamide]", "IC50": 1.12},
      {"smiles": "N#Cc1ccc2c(c1)nc(NCc1ccncc1)c1ncc(-c3ccc(C(=O)NC4CC4)c(Cl)c3)n12", "note": "[Example 2-246, 2-chloro-4-{7-cyano-4-[(pyridin-4-ylmethyl)amino]imidazo[1,2-a]quinoxalin-1-yl}-N-cyclopropylbenzamide]", "IC50": 1.3},
      {"smiles": "CC(C)CNc1nc2cc(C#N)ccc2n2c(-c3ccc(C(=O)NC4CC4)c(Cl)c3)cnc12", "note": "[Example 2-247, 2-chloro-4-{7-cyano-4-[(2-methylpropyl)amino]imidazo[1,2-a]quinoxalin-1-yl}-N-cyclopropylbenzamide]", "IC50": 0.339},
      {"smiles": "N#Cc1ccc2c(c1)nc(NCCC(N)=O)c1ncc(-c3ccc(C(=O)NC4CC4)c(Cl)c3)n12", "note": "[Example 2-248, 4-{4-[(3-amino-3-oxopropyl)amino]-7-cyanoimidazo[1,2-a]quinoxalin-1-yl}-2-chloro-N-cyclopropylbenzamide]", "IC50": 5.83},
      {"smiles": "COCCCNc1nc2cc(C#N)ccc2n2c(-c3ccc(C(=O)NC4CC4)c(Cl)c3)cnc12", "note": "[Example 2-249, 2-chloro-4-{7-cyano-4-[(3-methoxypropyl)amino]imidazo[1,2-a]quinoxalin-1-yl}-N-cyclopropylbenzamide]", "IC50": 2.4},
      {"smiles": "CC(C)(C)OC(=O)NCCCNc1nc2cc(C#N)ccc2n2c(-c3ccc(C(=O)NC4CC4)c(Cl)c3)cnc12", "note": "[Example 2-250, tert-butyl [3-({1-[3-chloro-4-(cyclopropylcarbamoyl)phenyl]-7-cyanoimidazo[1,2-a]quinoxalin-4-yl}amino)propyl]carbamate]", "IC50": 1.46},
      {"smiles": "Cn1ccc(CNc2nc3cc(C#N)ccc3n3c(-c4ccc(C(=O)NC5CC5)c(Cl)c4)cnc23)n1", "note": "[Example 2-251, 2-chloro-4-(7-cyano-4-{[(1-methyl-1H-pyrazol-3-yl)methyl]amino}imidazo[1,2-a]quinoxalin-1-yl)-N-cyclopropylbenzamide]", "IC50": 2.54},
      {"smiles": "Cn1nccc1CNc1nc2cc(C#N)ccc2n2c(-c3ccc(C(=O)NC4CC4)c(Cl)c3)cnc12", "note": "[Example 2-252, 2-chloro-4-(7-cyano-4-{[(1-methyl-1H-pyrazol-5-yl)methyl]amino}imidazo[1,2-a]quinoxalin-1-yl)-N-cyclopropylbenzamide]", "IC50": 0.852},
      {"smiles": "Cn1cc(CNc2nc3cc(C#N)ccc3n3c(-c4ccc(C(=O)NC5CC5)c(Cl)c4)cnc23)cn1", "note": "[Example 2-253, 2-chloro-4-(7-cyano-4-{[(1-methyl-1H-pyrazol-4-yl)methyl]amino}imidazo[1,2-a]quinoxalin-1-yl)-N-cyclopropylbenzamide]", "IC50": 1.22},
      {"smiles": "N#Cc1ccc2c(c1)nc(NCC(O)CO)c1ncc(-c3ccc(C(=O)NC4CC4)c(Cl)c3)n12", "note": "(centres unmarked) [Example 2-254, 2-chloro-4-{7-cyano-4-[(2,3-dihydroxypropyl)amino]imidazo[1,2-a]quinoxalin-1-yl}-N-cyclopropylbenzamide]", "IC50": 5.53}
    ]}
  ]
}
